From patent US6468972B1, “Method to promote, stimulate and/or delay hair loss by a brady kinin antagonist” (Societe L'Oreal S.A., priority 1995, dated 2002) come the findings set out here.

Assay [1] deals with bradykinin-induced increase in intracellular calcium concentration in keratinocytes of the outer sheath of human hair follicles. Kind of assay: Effect on the increase in intracellular calcium concentration induced by bradykinin (FURA 2 spectrofluorimetry). As to conditions: for % Inhibition (1 μM bradykinin): preincubation at least 120 seconds before 1 μM bradykinin, ORS keratinocytes; for Effect on the increase in intracellular calcium concentration induced by bradykinin (in words): summary statement of Example 1. The class given is cell-based. Here is the method:
(§1) a) Culturing Keratinocytes of the Outer Sheath of Human Hair Follicles: This procedure is a variant of that described by YANG et al., J. Invest. Dermatol., 1993, 101 (5), 652-659. After decontamination, a lifting scalp biopsy is treated with dispase in a proportion of 2.4 units/ml for 20 hours at 4° C. The outer sheath of the hair follicles (ORS) is then isolated by dissection, followed by treatment with 0.125% trypsin for 30 minutes at 37° C. The cells thus prepared are then cultured in conditioned Green medium for 6 days. […] The cells are then placed on glass slides 10 mm in diameter and cultured in KGM medium. b) Measurement of the Intracellular Calcium Concentration: The measurements are taken according to the procedures used conventionally by those skilled in the art and which are found, for example, in Cellular Calcium: A Practical Approach, published by J. G. McCormack and P. H. Cobbold; IRL PRESS (1991). The cells are incubated for 1 hour at 37° C. in 10 mM HEPES buffer, 5 mM KCl, 140 mM NaCl, 10 mM glucose, 1 mM MgCl2, 2 mM CaCl2 with 5 μM FURA 2 acetomethyl ester and Pluronic (5 mg/10 ml). After rinsing in the buffer, the slides are placed in an adapted support and the reading is taken using a PERKIN ELMER LS 50 B spectrofluorimeter at 37° C. The cells are preincubated with or without Minoxidil or Minoxidil sulphate, for at least 120 seconds before the injection of 1 μM bradykinin.

Test in assay [2]: as above
As to conditions: Homo sapiens, Keratinocyte, preincubation at least 120 seconds before 1 μM bradykinin, ORS keratinocytes. It is filed as cell-based, human. Here is the method: as §1

With Minoxidil sulphate, the “% Inhibition (1 μM bradykinin)” value worked out at 0% in assay [1] (product concentration 10 μM), 31% in assay [1] (product concentration 50 μM), 54% in assay [1] (product concentration 100 μM) and 70% in assay [1] (product concentration 1000 μM). Also, the “Effect on the increase in intracellular calcium concentration induced by bradykinin (in words)” value in assay [1] is given as “inhibit the increase in intracellular calcium concentration induced by bradykinin”.

Usually inhibition stands for the percentage by which the read-out fell short of the control. For `Nc1cc(N2CCCCC2)nc(N)[n+]1[O-]` [Minoxidil, 2,4-diamino-6-piperidinopyrimidine 3-oxide], in assay [1], the “Effect on the increase in intracellular calcium concentration induced by bradykinin (in words)” value is on record as “inhibit the increase in intracellular calcium concentration induced by bradykinin”. The inhibition at 10 µM in assay [2] (product concentration 10 μM) is 0%. Moreover, the inhibition at 50 µM in assay [2] (product concentration 50 μM) worked out at 15%. For the same compound, in assay [2] (product concentration 100 μM), the inhibition at 100 µM was 25%. In addition, the inhibition at 1000 µM in assay [2] (product concentration 1000 μM) was 31%.
